Test results as given in patent US5175159A, “3-substituted-1,4-benzodiazepines as oxytocin antagonists” (Merck & Co., Inc., priority 1990, dated 1992).
Like-named read-outs stand apart in the source and are kept apart here.

Molecular target: T1, oxytocin receptor (Rattus norvegicus, UniProt P70536)
T1 construct: crude membrane preparation of rat uterus as the source of oxytocin receptors; from tissue; host or cells: rat uterus, crude membrane preparation
T1 sequence (P70536 1-388): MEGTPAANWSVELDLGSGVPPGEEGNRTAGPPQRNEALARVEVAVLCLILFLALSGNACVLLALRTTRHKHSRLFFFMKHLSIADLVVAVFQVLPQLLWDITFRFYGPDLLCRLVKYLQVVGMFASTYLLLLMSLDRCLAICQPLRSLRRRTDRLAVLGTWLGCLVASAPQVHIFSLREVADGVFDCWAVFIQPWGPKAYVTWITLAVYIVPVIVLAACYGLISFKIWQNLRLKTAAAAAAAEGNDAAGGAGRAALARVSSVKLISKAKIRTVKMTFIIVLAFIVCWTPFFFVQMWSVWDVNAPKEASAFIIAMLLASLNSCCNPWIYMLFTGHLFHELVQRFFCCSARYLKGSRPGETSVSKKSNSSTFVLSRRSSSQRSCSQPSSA
Assay: [^3H]Oxytocin Binding Assay (crude membrane preparation of rat uterus)
Settings: for inhibition at 1 µM: read-out: % inhibition @ μM conc. (1 μM), [^3H]oxytocin binding, rat uterus membranes
Excerpt: The biological activities of the compounds of Formula I have been evaluated using a[^3 H]oxytocin binding assay.
[^3 H]Oxytocin Binding Assay
Oxytocin receptors have been identified in mammalian uterine tissue through the use of in vitro radioligand binding assays. These receptor binding sites mediate the contractile response of the uterine myometrium to oxytocin. The present radioligand binding procedure has been adapted from the methods of Soloff, M. S. and Grzonka, Z., Endocrinology 119: 1564-1569 (1986) and Fuchs, A-R., Fuchs, F., and Soloff, M. S., J. Clinical Endocrinology and Metabolism 60: 37-41 (1985) and is utilized here to measure the relative affinity of test compounds for the oxytocin receptor labeled by [^3 H]oxytocin. The assay uses a crude membrane preparation of rat uterus as the source of oxytocin receptors. The IC50 values (concentration of test compound to inhibit [^3 H]oxytocin binding by 50%) are determined by incubating uterine tissue with [^3 H]oxytocin in the presence or absence of varying concentrations of compound.

[1] = [^3H]oxytocin binding, rat uterus membranes, @ 10 μM, read-out: % inhibition @ μM conc. (10 μM)
[2] = read-out: % inhibition @ μM conc. (10 μM), [^3H]oxytocin binding, rat uterus membranes, @ 10 μM

Row | SMILES | IC50 [nM] | inhibition at 10 µM [2] [%] | also measured
1 | CN1C(=O)C(NC(=O)NC2C3CC4CC(C3)CC2C4)N=C(c2ccccc2)c2ccccc21 (racemic) [Example 1, (+/-)-N-(2,3-DIHYDRO-1-METHYL-2-OXO-5-PHENYL-1H-1,4-BENZODIAZEPIN-3-YL)-N'- TRICYCLO(3.3.1.1(3,7))DEC-2-YL-UREA] | 3900 |  | 
2 | CN1C(=O)C(NC(=O)C23CC4CC(CC(C4)C2)C3)N=C(c2ccccc2)c2ccccc21 (racemic) [Example 4, (+/-)-N-(2,3-DIHYDRO-1-METHYL-2-OXO-5-PHENYL-1H-1,4-BENZODIAZEPIN-3-YL)-TRICYCLO(3.3.1.1(3,7))DECANE-1-CARBOXAMIDE] | 13800 |  | 
3 | CN1C(=O)C(NC(=O)CC23CC4CC(CC(C4)C2)C3)N=C(c2ccccc2)c2ccccc21 (racemic) [Example 5, (+/-)-N-(2,3-DIHYDRO-1-METHYL-2-OXO-5-PHENYL-1H-1,4-BENZODIAZEPIN-3-YL)-TRICYCLO(3.3.1.1(3,7))DECANE-1-ACETAMIDE)] | 2800 |  | 
4 | CN1C(=O)C(NC(=O)NCC23CC4CC(CC(C4)C2)C3)N=C(c2ccccc2)c2ccccc21 (racemic) [Example 6, (+/-)-N-(2,3-DIHYDRO-1-METHYL-2-OXO-5-PHENYL-1H-1,4-BENZODIAZEPIN-3-YL)-N'- TRICYCLO(3.3.1.1(3,7))DEC-1-YL-METHYL)-UREA] | 2700 |  | 
5 | CN1C(=O)C(NC(=O)CC23CC4CC(CC(C)(C4)C2)C3)N=C(c2ccccc2)c2ccccc21 (racemic) [Example 7, (+/-)-N-(2,3-DIHYDRO-1-METHYL-2-OXO-5-PHENYL-1H-1,4-BENZODIAZEPIN-3-YL)-3-METHYLTRICYCLO(3.3.1.1(3,7))DECANE-1-ACETAMIDE] | 4700 |  | 
6 | CN1C(=O)CN(C(=O)NCC23CC4CC(CC(C4)C2)C3)C(c2ccccc2)c2ccccc21 (racemic) [Example 12, (+/-)-1,2,3,5-TETRAHYDRO-1-METHYL-2-OXO-5-PHENYL-N-(TRICYCLO(3.3.1.1.(3,7))DEC-1-YLMETHYL)-4H-1,4-BENZODIAZEPINE-4-CARBOXAMIDE] |  |  | inhibition at 10 µM [1]: 66%
7 | CN1C(=O)CN(C(=O)NC2C3CC4CC(C3)CC2C4)C(c2ccccc2)c2ccccc21 (racemic) [Example 13, (+/-)-1,2,3,5-TETRAHYDRO-1-METHYL-2-OXO-5-PHENYL-N-TRICYCLO(3.3.1.1(3,7))DEC-2-YL-4H-1,4-BENZODIAZEPINE-4-CARBOXAMIDE] |  |  | inhibition at 10 µM [1]: 48%
8 | CN1C(=O)[C@H](NC(=O)NC23CC4CC(CC(C4)C2)C3)N=C(c2ccccc2)c2ccccc21 (single isomer, unassigned) [Example 3] | 1690 |  | 
9 | CCOC(=O)[C@@H](NC(=O)NC1N=C(c2ccccc2)c2ccccc2N(C)C1=O)c1ccccc1 (single isomer, unassigned) [Example 11, ALPHA.-((((2,3-DIHYDRO-1-METHYL-2-OXO-5-PHENYL-1H-1,4-BENZODIAZEPIN-3-YL)AMINO)CARBONYL)AMINO)BEN[…] ETHYL ESTER, ALPHA ISOMER] |  | 46 | 
10 | CN1C(=O)[C@H](NS(=O)(=O)C[C@@]23CC[C@@H](CC2O)C3(C)C)N=C(c2ccccc2)c2ccccc21 (single isomer, unassigned) [Example 16A, N-(2,3-DIHYDRO-1-METHYL-2-OXO-5-PHENYL-1H-1,4-BENZODIAZEPIN-3-YL)-2-HYDROXY-7,7-DIMETHYL-BICYCLO(2.2.1) HEPTANE-1-METHANESULFONAMIDE, ISOMER A AND ISOMER B] | 1400 |  | 
11 | CN1C(=O)C(NS(=O)(=O)CC23CCC(CC2O)C3(C)C)N=C(c2ccccc2)c2ccccc21 (single isomer, unassigned) [Example 16B, N-(2,3-DIHYDRO-1-METHYL-2-OXO-5-PHENYL-1H-1,4-BENZODIAZEPIN-3-YL)-2-HYDROXY-7,7-DIMETHYL-BICYCLO(2.2.1) HEPTANE-1-METHANESULFONAMIDE, ISOMER A AND ISOMER B] |  |  | IC50 (read-out: [^3 H]OT(uterus) IC50, inhibition of [^3H]oxytocin binding, rat uterus membranes): 1000 nM
12 | CN1C(=O)[C@@H](NC(=O)CC2C(=O)C3(C)CCC2C3(C)C)N=C(c2ccccc2)c2ccccc21 (single isomer, unassigned) [Example 18] |  | 39 | 
13 | CN1C(=O)[C@H](NC(=O)CC2C(=O)C3(C)CCC2C3(C)C)N=C(c2ccccc2)c2ccccc21 (single isomer, unassigned) [Example 19] |  | 82 | inhibition at 1 µM: 39%
14 | CN1C(=O)[C@@H](NC(=O)CC2C3CCC(C)(C2O)C3(C)C)N=C(c2ccccc2)c2ccccc21 (single isomer, unassigned) [Example 22A] |  | 50 | 
15 | CN1C(=O)[C@@H](NC(=O)CC2C3CCC(C)(C2O)C3(C)C)N=C(c2ccccc2)c2ccccc21 (single isomer, unassigned) [Example 22B] |  |  | % inhibition @ μM conc. (10 μM) ([^3H]oxytocin binding, rat uterus membranes, @ 10 μM): 41%
16 | CN1C(=O)C(NC(=O)NC2C3CC4CC(C3)CC2C4)N=C(c2ccccc2)c2ccccc21 (single isomer, unassigned; (+)) [Example 2, (+)-N-(2,3-DIHYDRO-1-METHYL-2-OXO-5-PHENYL-1H-1,4-BENZODIAZEPIN-3-YL)-N'-TRICYCLO(3.3.1.1(3,7))DEC-2-YL-UREA] | 1600 |  | 
17 | CN1C(=O)C(NS(=O)(=O)C[C@]23CC[C@H](CC2=O)C3(C)C)N=C(c2ccccc2)c2ccccc21 (stereo partly drawn) [Example 8, (1S)-(1.ALPHA.(RS),4.ALPHA.))-N-(2,3-DIHYDRO-1-METHYL-2-OXO-5-PHENYL-1H-1,4-BENZODIAZEPIN-3-YL)-7,7-DIMETHYL-2-OXO-BICYCLO(2.2.1)HEPTANE-1-METHANESULFONAMIDE] | 4600 |  | 
18 | CN1C(=O)C(NS(=O)(=O)C[C@@]23CC[C@@H](CC2=O)C3(C)C)N=C(c2ccccc2)c2ccccc21 (stereo partly drawn) [Example 9, (1R-(1.ALPHA.(RS),4.ALPHA.))-N-(2,3-DIHYDRO-1-METHYL-2-OXO-5-PHENYL-1H-1,4- BENZODIAZEPIN-3-YL)-7,7-DIMETHYL-2-OXO-BICYCLO(2.2.1)HEPTANE-1-METHANESULFONAMIDE] | 3600 |  | 
19 | CN1C(=O)[C@@H](NS(=O)(=O)C[C@@]23CC[C@@H](CC2=O)C3(C)C)N=C(c2ccccc2)c2ccccc21 [Example 14, (1R-(1.ALPHA.(R*),4.ALPHA.))-N-(2,3-DIHYDRO-1-METHYL-2-OXO-5-PHENYL-1H-1,4- BENZODIAZEPIN-3-YL)-7,7-DIMETHYL-2-OXO-BICYCLO(2.2.1)HEPTANE-1-METHANESULFONAMIDE] |  | 52 | 
20 | CN1C(=O)[C@H](NS(=O)(=O)C[C@@]23CC[C@@H](CC2=O)C3(C)C)N=C(c2ccccc2)c2ccccc21 [Example 15, (1R-(1.ALPHA.(S*),4.ALPHA.))-N-(2,3-DIHYDRO-1-METHYL-2-OXO-5-PHENYL-1H-1,4- BENZODIAZEPIN-3-YL)-7,7-DIMETHYL-2-OXO-BICYCLO(2.2.1)HEPTANE-1-METHANESULFONAMIDE] | 1400 |  | 
21 | CN1C(=O)[C@@H](NS(=O)(=O)C[C@@]23CC[C@@H](CC2O)C3(C)C)N=C(c2ccccc2)c2ccccc21 (stereo partly drawn) [Example 17, N-(2,3-DIHYDRO-1-METHYL-2-OXO-5-PHENYL-1H-1,4-BENZODIAZEPIN-3-YL)-2-HYDROXY-7,7-DIMETHYL-BICYCLO(2.2.1) HEPTANE-1-METHANESULFONAMIDE] | 2500 |  | 
22 | CN1C(=O)[C@H](NS(=O)(=O)C[C@]23CC[C@H](CC2=O)C3(C)C)N=C(c2ccccc2)c2ccccc21 [Example 20, (1S-(1.ALPHA.(S*),4.ALPHA.))-N-(2,3-DIHYDRO-1-METHYL-2-OXO-5-PHENYL-1H-1,4- BENZODIAZEPIN-3-YL)-7,7-DIMETHYL-2-OXO-BICYCLO(2.2.1)HEPTANE-1-METHANESULFONAMIDE] |  | 80 | inhibition at 1 µM: 35%
23 | CN1C(=O)[C@@H](NS(=O)(=O)C[C@]23CC[C@H](CC2=O)C3(C)C)N=C(c2ccccc2)c2ccccc21 [Example 21, (1S-(1.ALPHA.(R*), 4.ALPHA.))-N-(2,3-DIHYDRO-1-METHYL-2-OXO-5-PHENYL-1H-1,4-BENZODIAZEPIN-3-YL)-7,7-DIMETHYL-2-OXO-BICYCLO(2.2.1)HEPTANE-1-METHANESULFONAMIDE] |  | 15 | 
24 | CN1C(=O)[C@H](NC(=O)C2C(=O)C3(C)CCC2C3(C)C)N=C(c2ccccc2)c2ccccc21 (stereo partly drawn) [Example 23, [3(R)-N-(2,3-DIHYDRO-1-METHYL-2-OXO-5-PHENYL-1H-1,4-BENZODIAZEPIN-3-YL)]-2- OXO-1,7,7-TRIMETHYLBICYCLO(2.2.1)HEPTANE-3-CARBOXAMIDE] |  | 85 | inhibition at 1 µM: 35%
